One assay concerns the target T1, LPAR1 (Homo sapiens, UniProt Q92633).
T1 construct: host or cells: U2OS
Put plainly: LPAR1 Arrestin Assay (arrestin reporter assay). It is filed as cell-based. The following applies: U2OS cells stably expressing the LPAR1 receptor, 200 nM 18:1 LPA (EC80); for Emax: read-out: Maximum Inhibition. Summed up:
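U2OS cells stably expressing LPAR1 pretreated 1 h at 37° C with compound, then stimulated 5 h with 200 nM 18:1 LPA (EC80), 0.1% DMSO, 0.02% BSA. β-lactamase reporter read by CCF4-AM FRET (460/530 nm emission) after 2 h dye load; 12-point curves, duplicate, n≥3.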

Assay [1] concerns UUO mice (kidney fibrosis). Put plainly: Mouse unilateral ureteral obstruction (UUO) kidney fibrosis model. The assay is classed as in vivo. The conditions noted are these: male CD-1 mice, 30 mg/kg po twice daily D-1 to D6, compared to vehicle treated UUO group. The protocol: All animal handling and experimental protocols were approved by AbbVie's Institutional Animal Care and Use Committee (IACUC) and were conducted in accordance with the ethical principles for pain-related animal research of the American Pain Society. Male CD-1 mice (28-30 g, Charles River) were group housed 10 per cage, housed in a temperature controlled room with a 12/12-hour day/night cycle, with food (2018 Tekland Global 18% protein rodent diet, Harlan®) and water available ad libitum. Mice underwent either complete unilateral ureter obstruction (UUO) or sham surgery to the left kidney. Briefly, animals were anesthetized with isoflurane, and the left ureter was visualized via a flank incision. Using 6-0 silk sutures, the ureter was tied off at two points near the renal pelvis and then completely cut between ligations (ligation step omitted for sham operated animals). The abdominal muscle was sutured and the skin closed using standard wound clips. Test compound or vehicle was delivered twice daily (30 mg/kg, po) via oral gavage, starting on the day before surgery (D-1) and continuing through day 6 after surgery (D6), at which time animals were sacrificed and kidney tissues collected. […] Statistical significance was determined by using a one-way analysis of variance (ANOVA) followed by a Bonferroni post-hoc test and was conducted using GraphPad prism.

T1 sequence (Q92633 whole entry): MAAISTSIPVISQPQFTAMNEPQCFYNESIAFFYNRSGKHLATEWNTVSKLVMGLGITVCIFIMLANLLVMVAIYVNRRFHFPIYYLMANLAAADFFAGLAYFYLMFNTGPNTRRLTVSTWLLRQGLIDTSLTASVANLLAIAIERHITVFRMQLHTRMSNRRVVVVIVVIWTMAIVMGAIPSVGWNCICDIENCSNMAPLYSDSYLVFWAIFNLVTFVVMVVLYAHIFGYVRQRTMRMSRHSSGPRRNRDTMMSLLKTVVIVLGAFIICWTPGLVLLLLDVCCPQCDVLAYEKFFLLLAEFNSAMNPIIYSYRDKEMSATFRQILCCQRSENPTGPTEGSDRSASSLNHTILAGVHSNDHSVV

The term IC50 denotes the concentration that inhibits the measured activity by half. Read a high IC50 as lower potency. Take `COc1cc(C(=O)N(CCCc2ccc(C)o2)CCSCC(=O)O)cc(OC)c1C` [Example 132, [(2-{(3,5-dimethoxy-4-methylbenzoyl)[3-(5-methylfuran-2-yl)propyl]amino}ethyl)sulfanyl]acetic Acid]: on LPAR1, 490 nM corresponded to half-maximal inhibition (IC50) and the Emax was determined as 126%.
With `COc1cc(C(=O)N(CCCc2ccccc2Cl)CCOCC(=O)O)cc(OC)c1C` [Example 131, (2-{[3-(2-chlorophenyl)propyl](3,5-dimethoxy-4-methylbenzoyl)amino}ethoxy)acetic Acid], on LPAR1, it took 2140 nM to reach half-maximal inhibition (IC50) and the Emax turned out to be 120%.
Take `COc1cc(C(=O)N(CCCc2ccccc2)CCSCC(=O)O)cc(OC)c1C` [Example 44, ({2-[(3,5-dimethoxy-4-methylbenzoyl)(3-phenylpropyl)amino]ethyl}sulfanyl)acetic Acid]: at LPAR1, the IC50 stood at 69 nM and the Emax amounted to 114%.
On the same counts, the results for `COc1cc(C(=O)N(CCCc2ccccc2)CCOCC(=O)NS(C)(=O)=O)cc(OC)c1C` [Example 157, N-(2-{2-[(methanesulfonyl)amino]-2-oxoethoxy}ethyl)-3,5-dimethoxy-4-methyl-N-(3-phenylpropyl)benzamide] are 108 nM and 128%.
On the same counts, the results for `COc1cc(C(=O)N(CCCc2ccccc2)CC(=O)NC2(C(=O)O)CC2)cc(OC)c1C` [Example 3, 1-{[N-(3,5-dimethoxy-4-methylbenzoyl)-N-(3-phenylpropyl)glycyl]amino}cyclopropane-1-carboxylic Acid] are 2230 nM and 110%.
In the case of `COc1cc(C(=O)N(CCCc2ccccc2)CCC[C@@H](C)C(=O)O)cc(OC)c1C` (single isomer, unassigned) [Example 77], at LPAR1, the IC50 came out at 5 nM and the Emax amounted to 102%.
The corresponding values for `COc1ccc(C2(C(=O)N(CCCCC(=O)O)CCCc3ccccc3)CC2)cc1` [Example 8, 5-{[1-(4-methoxyphenyl)cyclopropane-1-carbonyl](3-phenylpropyl)amino}pentanoic Acid] are 691 nM and 112%.
`COc1cc(OC)cc(C(=O)N(CCCCC(=O)O)CCCc2ccccc2)c1` [Example 7, 5-[(3,5-dimethoxybenzoyl)(3-phenylpropyl)amino]pentanoic Acid]: at LPAR1, half-maximal inhibition (IC50) required 713 nM and the Emax stood at 108%. In addition, in assay [1], the “reduction in Col1a1 expression” value is −46% and the “reduction in tubulointerstitial fibrosis as measured by PSR” value is −53%.
In the case of `COc1cc(C(=O)N(CCCCC(=O)O)CCCc2ccccc2)cc(OC)c1C` [Example 4, 5-[(3,5-dimethoxy-4-methylbenzoyl)(3-phenylpropyl)amino]pentanoic Acid], at LPAR1, the IC50 is 27 nM and the Emax is 101%.
On to `COc1cc(C(=O)N(CCCCC(=O)O)CCCc2ccccc2)cc(OC)c1Br` [Example 20, 5-[(4-bromo-3,5-dimethoxybenzoyl)(3-phenylpropyl)amino]pentanoic Acid], for which, on LPAR1, the IC50 was 43 nM and the Emax stood at 101%.
